# Results from US11576903B2, “Amorphous kinase inhibitor formulations and methods of use thereof” (Deciphera Pharmaceuticals, LLC, priority 2019, dated 2023).
# Experiments:
# [1] = Kinetic aqueous solubility at select pH; assay type: physicochemical; settings: aqueous medium, kinetic from dmso stock, 25° C.
# Description: Solubility of a solid dispersion of amorphous Compound 1 (25%)/HPMCAS-HG as prepared in Example 1, at select pH values was evaluated.
# [2] = Pharmacokinetic study after oral administration to rats; settings: rat, in vivo, 10 mg/kg (Compound 1 basis), oral suspension
# Description: Studies comparing the pharmacokinetics of crystalline Compound 1 and solid dispersion of amorphous Compound 1 (25%) as prepared in Example 1 were conducted in rats. The dose in both studies were 10 mg/kg (Compound 1 basis). Rats were administered Crystalline Compound 1 as an oral suspension in a vehicle of 20% Captisol/0.4% HPMC at pH 2. Rats were administered amorphous Compound 1 as an oral suspension using in a 0.5% Methocel vehicle.
smiles,measurement,setting,value
CCn1c(=O)c(-c2cc(NC(=O)Nc3ccccc3)c(F)cc2Br)cc2cnc(NC)cc21 [Crystalline Compound 1],solubility kinetic,"[1]; aqueous buffer, pH 6.5, aqueous",1 µg/mL
same,solubility kinetic,"[1]; simulated gastric fluid, pH 2, aqueous",6 µg/mL
same,AUC(0-inf),[2],131 ng·h/mL
same,AUC(0-t),[2],111 ng·h/mL
same,Cmax,[2],20.2 ng/mL
same,Tmax,[2],1.67 h
same,half-life,[2],8.76 h
